Columns and labels:
Experiment in all cases: relative viability (nuclei count vs DMSO), 5 days (fraction); higher = more cells survive
[1] = compound: CC1=CC=C(C=C1)C(=O)CN2C3=C(CCCC3)SC2=N [Pifithrin_alpha] + CS(=O)(=O)N1CCN(Cc2cc3nc(-c4cccc5[nH]ncc45)nc(N4CCOCC4)c3s2)CC1 [Pictilisib] (partner 1 µM)
Summary of the method: (§1)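 Lung cancer cell lines were seeded in 1536-well plates and dosed by pin tool the next day, with either a single drug or a fixed anchor-drug dose combined with five library-drug doses (not always all listed) spaced in √10 steps. Five days later, one step fixed the cells and stained their nuclei (final 0.05% Triton X-100, 1% formaldehyde, 1 ug/ml Hoechst), and nuclei were counted on 4× images. Relative viability is the nuclei count in treated wells divided by the count in vehicle wells, and each value is the median of duplicate plates.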

Bemcentinib + Foretinib = compound: Nc1nc(Nc2ccc3c(c2)CC[C@@H](N2CCCC2)CC3)nn1-c1cc2c(nn1)-c1ccccc1CCC2 [Bemcentinib] + COc1cc2c(Oc3ccc(NC(=O)C4(C(=O)Nc5ccc(F)cc5)CC4)cc3F)ccnc2cc1OCCCN1CCOCC1 [Foretinib] (partner 0.25 µM)
Summary of the method: as §1

Axitinib + Olaparib = compound: CNC(=O)c1ccccc1Sc1ccc2c(/C=C/c3ccccn3)n[nH]c2c1 [Axitinib] + O=C(c1cc(Cc2n[nH]c(=O)c3ccccc23)ccc1F)N1CCN(C(=O)C2CC2)CC1 [Olaparib] (partner 8 µM)
Summary of the method: as §1

Bemcentinib + Phenformin = compound: Nc1nc(Nc2ccc3c(c2)CC[C@@H](N2CCCC2)CC3)nn1-c1cc2c(nn1)-c1ccccc1CCC2 [Bemcentinib] + N=C(N)NC(=N)NCCc1ccccc1 [Phenformin] (partner 250 µM)
Summary of the method: as §1

NCI-H650
relative viability ([1]; first compound 3.162 µM): 0.91
relative viability ([1]; first compound 10 µM): 0.873
relative viability ([1]; first compound 31.62 µM): 0.58
relative viability ([1]; first compound 100 µM): 0.763
relative viability (Bemcentinib + Foretinib; first compound 0.04 µM): 0.975
relative viability (Bemcentinib + Foretinib; first compound 0.1265 µM): 1.16
relative viability (Bemcentinib + Foretinib; first compound 0.4 µM): 1.04
relative viability (Bemcentinib + Foretinib; first compound 1.265 µM): 1.02
relative viability (Bemcentinib + Foretinib; first compound 4 µM): 1.05
relative viability (Axitinib + Olaparib; first compound 0.005 µM): 0.403
relative viability (Axitinib + Olaparib; first compound 0.01581 µM): 0.389
relative viability (Axitinib + Olaparib; first compound 0.05 µM): 0.394
relative viability (Axitinib + Olaparib; first compound 0.1581 µM): 0.406
relative viability (Axitinib + Olaparib; first compound 0.5 µM): 0.444
relative viability (Bemcentinib + Phenformin; first compound 0.04 µM): 0.407
relative viability (Bemcentinib + Phenformin; first compound 0.1265 µM): 0.487
relative viability (Bemcentinib + Phenformin; first compound 0.4 µM): 0.484
relative viability (Bemcentinib + Phenformin; first compound 1.265 µM): 0.429
relative viability (Bemcentinib + Phenformin; first compound 4 µM): 0.415

— the supplement of paper PMC10307832
